Data published in patent US20240415845A1, “Compositions of Iboga Alkaloids and Methods of Treatment” (priority 2022, published 2024).
Where “and” joins values, the source holds several entries; their conditions need not be identical. Equal values may be shown once.

Experiments:
[1] = tested on: special operations veterans with combat and/or blast exposure; assay: Clinician-Administered PTSD Scale for DSM-5 (CAPS-5); type: in vivo, human
Excerpt: (§1) The pre-specified primary outcome was change in the World Health Organization Disability Assessment Schedule 2.0 (WHODAS) (Gold L. H. et al., J. Am. Acad. Psychiatry Law 42, 9 (2014)) from baseline to post-treatment, with change from baseline to the one-month follow-up a secondary outcome. Additional pre-specified secondary outcomes included post-treatment changes on the Clinician Administered PTSD Scale (CAPS-5; Weathers, F. W. et al., Psychol. Assess., 30, 383-395 (2018)), Montgomery-Åsberg Depression Rating Scale (MADRS; Montgomery, S. A., Br. J. Psychiatry J. Ment. Sci., 134, 382-389 (1979)) and the Hamilton-Anxiety Rating Scale (HAM-A; Bruss, G. S., et al., Psychiatry Res., 53, 191-202 (1994)). […] An additional dose of magnesium was administered approximately 12 hours later. To assess the significance of post-treatment changes, linear mixed effects (LME) models were used for each outcome measure. False Discovery Rate (FDR; Benjamini, Y. et al., J. R. Stat. Soc. Ser. B Methodol., 57, 289-300 (1995)) was applied to correct for multiple comparisons.
(§2) To further assess changes in comorbid psychiatric symptoms identified by the models, mean percent reduction, response rate, and remission rate according to the CAPS-5, MADRS and HAM-A (Table 1) were calculated. Response on the CAPS-5, MADRS, and HAM-A was defined as a reduction of at least 10 points (Mitchell, J. M. et al., Nat. Med. 27, 1025-1033(2021)), 50% (Leucht, S. et al., J. Affect. Disord. 210, 287-293 (2017)), and 50% (McIntyre, A. et al., Depress. Anxiety 24, 487-494 (2007)), respectively; remission as loss of diagnosis and a total score below 12 (Mitchell, J. M. et al. supra), <8 (Leucht, S. et al. supra), and <8(McIntyre, A. et al., supra), respectively. One participant's baseline scores met criteria for remission in all three scales and so were excluded from the calculation of response and remission rates, leaving 29 participants in these specific analyses.
(§3) With subjects in the fasting state, an intravenous infusion of 1 gram of magnesium sulfate was administered 1-2 hours prior to treatment. […] Medical staff (MD, RN, or EMT) were onsite at a ratio of at least 1 staff per 2 patients throughout treatment for monitoring and management, but no specific coaching or psychological support was provided during treatment.
(§4) Clinician administered scales included CAPS-5 (Clinician-administered PTSD Scale for DSM-5), which is a gold standard assessment of PTSD symptom severity; MADRS (Montgomery-Asberg Depression Rating Scale), a measure for depressive symptom severity: and Hamilton-Anxiety Rating Scale (HAM-A) (Shear, M. K. et al., Depress. Anxiety 13, 166-178 (2001)) a measure for anxiety symptom severity: SCID-5 (Structured Clinical Interview for DSM-5) Overview for a historical and environmental context of symptom presentation: MINI DSM-5 (Mini International Neuropsychiatric Interview from DSM-5) for a structured psychodiagnostics assessment: BAT-L (Boston Assessment of TBI-Lifetime) for a lifetime history of TBI and blast exposure: and Ohio State University TBI Identification Method (Short Form) for a lifetime history of TBI. MADRS testing provides an indication of depressive symptoms, CAPS-5 provides an indication of PTSD and SIGH-A provides an indication of anxiety. Collectively these overlap to provide indication of mood, concentration, sleep and tension.
For the CAPS-5, the test version with a […] structured interview of PTSD symptoms over the past week was used, using a 0 (“Absent”) to 4 (“Extreme/Incapacitating”) scale, with possible total scores ranging from 0) to 80. The score range 23 to 34 is considered moderate PTSD while a higher score represents severe PTSD (Weathers, F. W. et al., Psychol. Assess. 30, 383-395 (2018)).

[2] = tested on: special operations veterans with combat and/or blast exposure; assay: Hamilton-Anxiety Rating Scale (HAM-A); type: in vivo, human
Excerpt: as §1, §2, §3, §4
To assess anxiety symptoms, the Hamilton Anxiety Rating Scale was used. This scale includes 14-items assessing both psychic and physical symptoms of anxiety. Items are rated on a scale from 0 (no symptoms) to 4 (severe symptoms). Total score ranges were: no or minimal anxiety (≤7), mild (8-14), moderate (15-23), and severe anxiety symptoms (≥24) (Matza et al., Int. J. Methods Psychiatr. Res. 19, 223-232 (2010))).

[3] = 1-mo. post, only participants meeting relevant MINI diagnostic criteria
[4] = 1-mo. post, only participants with mild TBI
[5] = 1-wk. post, only participants meeting relevant MINI diagnostic criteria
[6] = 1-wk. post, only participants with mild TBI
[7] = baseline vs 1-mo. post, only participants with mild TBI (N 28)
[8] = baseline vs 1-wk post, only participants with mild TBI (N 28)
[9] = baseline vs one-month post, all participants
[10] = baseline vs one-week post, all participants
[11] = one-month post, all participants, mean ± SD
[12] = one-week post, all participants, mean ± SD

With CCC1CC2CC3c4[nH]c5ccc(OC)cc5c4CCN(C2)C13 (centres unmarked) [ibogaine, Ibogaine] the “CAPS-5 % Reduction vs Baseline” value [1, 3] was 86% ± 19%, the “CAPS-5 Remission Rate” value [1, 3] was 83% and the “CAPS-5 Response Rate” value [1, 3] was 100%. For the same compound, the CAPS-5 score ([1]; 1-mo. post, only participants meeting relevant MINI diagnostic criteria at baseline (N 23), baseline 35.7 ± 11.0) was 6.0, the “CAPS-5 % Reduction vs Baseline” value [1, 4] was 88% ± 17% and the “CAPS-5 Remission Rate” value [1, 4] was 85%. The “CAPS-5 Response Rate” value [1, 4] was 100%, the CAPS-5 score ([1]; 1-mo. post, only participants with mild TBI (N 28), baseline 31.7 ± 13.0) was 4.8 and the CAPS-5 score ([1]; 1-wk post, only participants meeting relevant MINI diagnostic criteria at baseline (N 23), baseline 35.7 ± 11.0) was 4.4. For the same compound, the “CAPS-5 % Reduction vs Baseline” value [1, 5] was 87% ± 17%, the “CAPS-5 Remission Rate” value [1, 5] was 83% and the “CAPS-5 Response Rate” value [1, 5] was 96%. The “CAPS-5 % Reduction vs Baseline” value [1, 6] was 89% ± 14%, the “CAPS-5 Remission Rate” value [1, 6] was 89% and the “CAPS-5 Response Rate” value [1, 6] was 96%. The CAPS-5 score ([1]; 1-wk. post, only participants with mild TBI (N 28), baseline 31.7 ± 13.0) was 3.6, the “CAPS-5, effect size D” value ([1]; baseline vs 1-mo. post, only participants meeting relevant MINI diagnostic criteria (N 23)) was 2.98 and the “CAPS-5, effect size D” value [1, 7] was 2.49. The “CAPS-5, effect size D” value [1, 8] was 2.28, the “CAPS-5, effect size D” value ([1]; baseline vs 1-wk. post, only participants meeting relevant MINI diagnostic criteria (N 23)) was 2.75 and the “CAPS-5, effect size D” value [1, 9] was 2.54. For the same compound, the “CAPS-5, effect size D” value [1, 10] was 2.30, the “subjects lower than mild PTSD symptom severity (CAPS-5)” value ([1]; one month following treatment (FIG. 3B), mild = 12-22) was 80% and the “CAPS-5 Remission Rate” value ([1]; one-month post, 29 participants, remission = loss of diagnosis and total score below 12) was 86%. The “CAPS-5 Response Rate” value ([1]; one-month post, 29 participants, response = reduction of at least 10 points) was 100%, the CAPS-5 score ([1]; one-month post, all participants, baseline 31.7 ± 12.5, mean ± SD) was 4.8 and the “CAPS-5 % Reduction vs Baseline” value [1, 11] was 88% and 88% ± 17%. For the same compound, the “CAPS-5 Remission Rate” value ([1]; one-week post, 29 participants, remission = loss of diagnosis and total score below 12) was 86%, the “CAPS-5 Response Rate” value ([1]; one-week post, 29 participants, response = reduction of at least 10 points) was 97% and the CAPS-5 score ([1]; one-week post, all participants, baseline 31.7 ± 12.5, mean ± SD) was 3.9. The “CAPS-5 % Reduction vs Baseline” value [1, 12] was 88% ± 15%, the “HAM-A % Reduction vs Baseline” value [2, 3] was 80% ± 23% and the “HAM-A Remission Rate” value [2, 3] was 71%. For the same compound, the “HAM-A Response Rate” value [2, 3] was 86%, the HAM-A score ([2]; 1-mo. post, only participants meeting relevant MINI diagnostic criteria at baseline (N 14), baseline 23.8 ± 7.6) was 5.1 and the “HAM-A % Reduction vs Baseline” value [2, 4] was 82% ± 21%. The “HAM-A Remission Rate” value [2, 4] was 85%, the “HAM-A Response Rate” value [2, 4] was 93% and the HAM-A score ([2]; 1-mo. post, only participants with mild TBI (N 28), baseline 20.7 ± 8.6) was 3.7. For the same compound, the HAM-A score ([2]; 1-wk post, only participants meeting relevant MINI diagnostic criteria at baseline (N 14), baseline 23.8 ± 7.6) was 4.2, the “HAM-A % Reduction vs Baseline” value [2, 5] was 82% ± 14% and the “HAM-A Remission Rate” value [2, 5] was 86%. For the same compound, the “HAM-A Response Rate” value [2, 5] was 100%, the “HAM-A % Reduction vs Baseline” value [2, 6] was 82% ± 19% and the “HAM-A Remission Rate” value [2, 6] was 89%. The “HAM-A Response Rate” value [2, 6] was 96%, the HAM-A score ([2]; 1-wk. post, only participants with mild TBI (N 28), baseline 20.7 ± 8.6) was 3.3 and the “HAM-A, effect size D” value ([2]; baseline vs 1-mo. post, only participants meeting relevant MINI diagnostic criteria (N 14)) was 2.33. The “HAM-A, effect size D” value [2, 7] was 2.07, the “HAM-A, effect size D” value [2, 8] was 2.02 and the “HAM-A, effect size D” value ([2]; baseline vs 1-wk. post, only participants meeting relevant MINI diagnostic criteria (N 14)) was 2.52. The “HAM-A, effect size D” value [2, 9] was 2.13, the “HAM-A, effect size D” value [2, 10] was 2.06 and the “HAM-A anxiety symptom severity score” value ([2]; four days after (immediate post) treatment, baseline about 21 (FIG. 5A)) was “about 7”. For the same compound, the HAM-A effect size ([2]; four days after treatment relative to baseline (FIG. 5A)) was 1.81, the “subjects scoring below the mild anxiety range (HAM-A)” value ([2]; one month post treatment (FIG. 5B)) was 90% and the HAM-A effect size ([2]; one month post treatment relative to baseline (FIG. 5A)) was 1.82. For the same compound, the “HAM-A Remission Rate” value ([2]; one-month post, 29 participants, remission = score <8) was 83%, the “HAM-A Response Rate” value ([2]; one-month post, 29 participants, response = reduction of at least 50%) was 93% and the HAM-A score ([2]; one-month post, all participants, baseline 20.8 ± 8.5, mean ± SD) was 3.9. For the same compound, the “HAM-A % Reduction vs Baseline” value [2, 11] was 81% ± 21%, the “HAM-A Remission Rate” value ([2]; one-week post, 29 participants, remission = score <8) was 86% and the “HAM-A Response Rate” value ([2]; one-week post, 29 participants, response = reduction of at least 50%) was 97%. The HAM-A score ([2]; one-week post, all participants, baseline 20.8 ± 8.5, mean ± SD) was 3.6 and the “HAM-A % Reduction vs Baseline” value [2, 12] was 81% ± 19%.
